PubChem BioAssay (NCI)
Several values for one entry are separate records, joined by “and”; a condition that tells them apart may be missing. Identical values can stand only once.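 Cultured in 96-well plates, cells were exposed to test compound for 48 hours across five concentrations. GI50 marks 50% less growth. TGI: concentration producing complete growth inhibition.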

What was measured:
Assay in all cases: NCI anticancer screen, dose series, 48 h
[1] = system: 786-0 renal
[2] = system: BT-549 breast
[3] = system: HOP-62 NSCLC
[4] = system: M14 melanoma
[5] = system: MDA-MB-435
[6] = system: OVCAR-5 ovarian
[7] = system: SK-MEL-2 melanoma
[8] = system: SK-MEL-28 melanoma
[9] = system: SK-OV-3 ovarian
[10] = system: SNB-19 CNS

SMILES | GI50 [1] | TGI [1] | GI50 [2] | TGI [2] | GI50 [3] | TGI [3] | GI50 [4] | TGI [4] | GI50 [5] | TGI [5] | GI50 [6] | TGI [6] | GI50 [7] | TGI [7] | GI50 [8] | TGI [8] | GI50 [9] | TGI [9] | GI50 [10] | TGI [10]
Cc1cc(I)cc(CNCCN2CCOCC2)c1O | 36.9 µM | > 100 µM | 15.4 µM | 61.3 µM | 29.4 µM | > 100 µM | 26.9 µM | > 100 µM | > 100 µM | > 100 µM | 59.8 µM | > 100 µM | > 100 µM | > 100 µM | > 100 µM | > 100 µM | > 100 µM | > 100 µM | > 100 µM | > 100 µM
CCCCCCCCCCCCNC(=O)N[C@H](C(=O)N[C@H]1/C=C/CCNC(=O)/C=C/[C@H](C)NC1=O)C(C)C | 0.276 µM | 5.39 µM | 0.0228 µM | 0.0701 µM | 0.0538 µM | 0.178 µM | 0.221 µM | 4.6 µM | 0.0316 µM | 0.286 µM | 0.0271 µM | 0.114 µM | 0.207 µM | 0.627 µM | 0.208 µM | 0.708 µM | 0.339 µM | 1.99 µM | 0.0647 µM | 15 µM
Cc1cc(O[C@@H]2O[C@@H](C)[C@H](O)[C@@H](O)[C@H]2O)c2c3c(c(O[C@@H]4O[C@@H](C)[C@H](O)[C@@H](O)[C@H]4O)cc2c1)C(=O)c1c(O)cccc1C3=O | > 30 µM | > 30 µM | > 30 µM | > 30 µM | > 30 µM | > 30 µM | > 30 µM | > 30 µM | > 30 µM | > 30 µM | > 30 µM | > 30 µM | > 30 µM | > 30 µM | > 30 µM | > 30 µM | > 30 µM | > 30 µM | > 30 µM | > 30 µM
CCNC(=O)Oc1ccc(/C(=C(\C)c2ccc(Cl)cc2)c2ccc(OCCN(CC)CC)cc2)cc1 | 1.76 µM | 3.42 µM | 5.33 µM | 18.5 µM | 4.35 µM | 16.4 µM | 1.97 µM | 3.97 µM | 3.44 µM | 12.8 µM | 10.3 µM | 23.1 µM | 5.01 µM | 17.6 µM | 1.74 µM | 3.52 µM | 10.7 µM | 22.8 µM | 3.13 µM | 8.45 µM
COc1ccc(NC(=S)C#N)cc1 | – | > 100 µM | – | > 100 µM | – | > 100 µM | – | > 100 µM | – | > 100 µM | – | > 100 µM | – | > 100 µM | – | > 100 µM | – | > 100 µM | – | > 100 µM
CCC1(OC(=O)CNC)C(=O)OCc2c1cc1n(c2=O)Cc2cc3ccccc3nc2-1 (stereo not given) | – | 0.0152 µM | – | 5.11 µM | – | < 0.0143 µM | – | 1.27 µM | – | 0.279 µM | – | 0.221 µM | – | 0.577 µM | – | 2.7 µM | – | 0.152 µM | – | 6.12 µM
CC(C)n1nc(C#Cc2cccc(O)c2)c2c(N)ncnc21 | 4.7 µM and 3.37 µM | 15.3 µM and 11.7 µM | 1.33 µM and 1.34 µM | 4.56 µM and 6.18 µM | 1.18 µM and 1.3 µM | 4.31 µM and 5 µM | 0.693 µM and 0.397 µM | 4.68 µM and 2.42 µM | 0.882 µM and 0.655 µM | 5.5 µM and 5.03 µM | 1.79 µM and 1.62 µM | 16.4 µM and 8 µM | 0.721 µM and 0.751 µM | 2.69 µM and 3.11 µM | 0.657 µM and 0.304 µM | 2.73 µM and 2.36 µM | 0.978 µM and 1.01 µM | 3.67 µM | 3.02 µM and 2.16 µM | 21.4 µM and 14.4 µM
NC(=O)c1cc(I)ccc1NC(=O)/C=C/c1ccccc1Cl | 0.77 µM | 20 µM | 0.816 µM | 94.7 µM | 4.9 µM | 33.5 µM | 0.621 µM | 24.8 µM | 0.204 µM | 0.578 µM | 3.8 µM | 37.2 µM | 0.628 µM | 30.1 µM | 0.374 µM | 21.8 µM | 0.529 µM | 14.9 µM | 0.869 µM | > 47.2 µM
